{"source": "paper PMC6847200", "about": "(2019)", "test_in_all_cases": "ITC", "conditions_in_all_cases": "100 mM KCl, 20 mM MgCl2; 50 mM K-HEPES pH 7.5, 30 °C; apparent", "key": {"[1]": {"test_system": "env1 (RNA, riboswitch) GGGUGUAAUCUCCAAAAUAUGGUUGGGGAGCCUCCACCAGUGAACCGUAAAAUCGCUGUCACCACCC"}, "[2]": {"test_system": "env30 (RNA, riboswitch) GGACGUAGCCUGGGGGAUUGGCCCCAGGGCAUCCACGAGCUGGCCGCAACUAGCUGAGACCGUCC"}, "[3]": {"test_system": "env23 (RNA, riboswitch) GGGUGUAAUUCGGGGGAUUGGCCCCGGAGUAUCCACGACCGGACCAUAAUCCGGUGCAUCCACCC"}, "[4]": {"test_system": "xpt + U75C76 (RNA, riboswitch) GGACAUAUAAUCGCGUGGAUAUGGCACGCAAGUUUCUACCGGGCACCGUAAAUGUCCGUCACUAUGUCC"}, "[5]": {"test_system": "env1 C78A (RNA, riboswitch) GGGUGUAAUCUCCAAAAUAUGGUUGGGGAGCCUCCACCAGUGAACCGUAAAAUCGCUGUCAACACCC"}, "[6]": {"test_system": "xpt U51C + U75C76 (RNA, riboswitch) GGACAUAUAAUCGCGUGGAUAUGGCACGCAAGUUUCCACCGGGCACCGUAAAUGUCCGUCACUAUGUCC"}, "[7]": {"test_system": "env1 C51U (RNA, riboswitch) GGGUGUAAUCUCCAAAAUAUGGUUGGGGAGCCUCUACCAGUGAACCGUAAAAUCGCUGUCACCACCC"}, "[8]": {"test_system": "env1 A77U (RNA, riboswitch) GGGUGUAAUCUCCAAAAUAUGGUUGGGGAGCCUCCACCAGUGAACCGUAAAAUCGCUGUCUCCACCC"}, "[9]": {"test_system": "env1 C47,48U (RNA, riboswitch) GGGUGUAAUCUCCAAAAUAUGGUUGGGGAGUUUCCACCAGUGAACCGUAAAAUCGCUGUCACCACCC"}, "[10]": {"test_system": "env1 C48A (RNA, riboswitch) GGGUGUAAUCUCCAAAAUAUGGUUGGGGAGCAUCCACCAGUGAACCGUAAAAUCGCUGUCACCACCC"}, "[11]": {"test_system": "env1 Δ(U75,C76) (RNA, riboswitch) GGGUGUAAUCUCCAAAAUAUGGUUGGGGAGCCUCCACCAGUGAACCGUAAAAUCGCUGACCACCC"}, "[12]": {"test_system": "env1 U75A (RNA, riboswitch) GGGUGUAAUCUCCAAAAUAUGGUUGGGGAGCCUCCACCAGUGAACCGUAAAAUCGCUGACACCACCC"}, "[13]": {"test_system": "env1 G21A,C79U (RNA, riboswitch) GGGUAUAAUCUCCAAAAUAUGGUUGGGGAGCCUCCACCAGUGAACCGUAAAAUCGCUGUCACUACCC"}, "[14]": {"test_system": "env6 (RNA, riboswitch) GGACGUAAUCCUCCGAACAGGCGGGGGAGCAUCCACCGCCGGGCCUUAACCCGGUGUAACCGUCC"}}}
{"smiles": "Nc1nc2c(ncn2CCC(CO)CO)c(=O)[nH]1", "values": [{"measurement": "KD", "setting": "[1]", "value": "2000 ± 100", "unit": "nM"}]}
{"smiles": "Nc1nc2c(ncn2COCCO)c(=O)[nH]1", "values": [{"measurement": "KD", "setting": "[1]", "value": "560 ± 10", "unit": "nM"}]}
{"smiles": "Nc1nc2c(ncn2[C@@H]2O[C@H](CO)[C@@H](O)[C@H]2O)c(=O)[nH]1", "values": [{"measurement": "KD,rG", "setting": "[1]", "value": "89 ± 10", "unit": "nM"}, {"measurement": "KD,rG", "setting": "[2]", "value": "36 000 ± 1000 nM"}, {"measurement": "KD,rG", "setting": "[3]", "value": "51 000 ± 4000 nM"}]}
{"smiles": "Nc1nc2c(ncn2[C@H]2C[C@H](O)[C@@H](CO)O2)c(=O)[nH]1", "values": [{"measurement": "KD,app", "setting": "[4]", "value": "8100 ± 600", "unit": "nM"}, {"measurement": "KD,dG", "setting": "[5]", "value": "41 000 ± 9000 nM"}, {"measurement": "KD,app", "setting": "[6]", "value": "1600 ± 100", "unit": "nM"}, {"measurement": "KD,2′-dG", "setting": "[1]", "value": "34 ± 1", "unit": "nM"}, {"measurement": "KD,dG", "setting": "[7]", "value": "620 ± 180", "unit": "nM"}, {"measurement": "KD,dG", "setting": "[8]", "value": "250 ± 10", "unit": "nM"}, {"measurement": "KD,dG", "setting": "[9]", "value": "110 ± 10", "unit": "nM"}, {"measurement": "KD,2′-dG", "setting": "[2]", "value": "2400 ± 900", "unit": "nM"}, {"measurement": "KD,dG", "setting": "[10]", "value": "7.1 ± 1.4", "unit": "nM"}, {"measurement": "KD,2′-dG", "setting": "[3]", "value": "290 ± 50", "unit": "nM"}, {"measurement": "KD,dG", "setting": "[11]", "value": "240 ± 50", "unit": "nM"}, {"measurement": "KD,dG", "setting": "[12]", "value": "1600 ± 300", "unit": "nM"}, {"measurement": "KD,dG", "setting": "[13]", "value": "570 ± 30", "unit": "nM"}, {"measurement": "KD,2′-dG", "setting": "[14]", "value": "88 ± 3", "unit": "nM"}]}
{"smiles": "O=c1[nH]cnc2nc[nH]c12", "values": [{"measurement": "KD,app", "setting": "[4]", "value": "21000 ± 2000", "unit": "nM"}]}
